For one experiment, the system named is NCI-H929. In words: Alamar blue cytotoxicity assay NCI-H929. The experiment is classed as cell-based. The note with it: Homo sapiens, 72 hours, read-out: cellular cytotoxicity IC50 NCI-H929. On the procedure:
In order to determine the cellular potency of the compounds, the cytotoxicity of each compound was determined against a range of cell lines. Standard cytotoxicity methods were performed as follows: cells were seeded in 96-well plates appropriately for their doubling time (2-5000 cells per well) in RPMI or DMEM media containing 10% FCS and incubated overnight at 37° C., 5% CO2. The media was removed and 100 μl fresh media containing increasing concentrations of appropriate compound was added and the cells incubated for 72 hours at 37° C., 5% CO2. A 10% stock of alamar blue (Roche, Lewes, United Kingdom) was prepared in medium and 100 μl added to the cells which were incubated for 2 hours. Absorbance was measured on the Wallac Victor 2 1420 multi-label counter at 544-595 nm.

The next experiment has as its target CYP2C19 (Homo sapiens (Human), UniProt P33261). The experiment is described as follows: CYP2C19 inhibition, human liver microsomes, mephenyloin. In kind it is in vitro ADME. The method, then:
Six test compound concentrations (0.05, 0.25, 0.5, 2.5, 5, 25 μM in DMSO; final DMSO concentration=0.25%) were incubated with human liver microsomes (0.5 mg/mL) and NADPH (1 mM) in the presence of the probe substrate mephenyloin (25 μM) for 60 min at 37° C. The selective CYP2C19 inhibitor, tranylcypromine, was screened alongside the test compounds as a positive control.
For the CYP1A incubations, the reactions were terminated by the addition of methanol, and the formation of the metabolite, resorufin, was monitored by fluorescence (excitation wavelength=535 nm, emission wavelength=595 nm). For the CYP2C9, CYP2C19, CYP2D6, and CYP3A4 incubations, the reactions were terminated by the addition of methanol containing internal standard. The samples were then centrifuged, and the supernatants were combined, for the simultaneous analysis of 4-hydroxytolbutamide, 4-hydroxymephenyloin, dextrorphan, and 1-hydroxymidazolam plus internal standard by LC-MS/MS using generic LC-MS/MS conditions. Formic acid in deionised water (final concentration=0.1%) was added to the final sample prior to analysis.

The structures appear in SMILES notation.

Chain of CYP2C19 (P33261 whole entry): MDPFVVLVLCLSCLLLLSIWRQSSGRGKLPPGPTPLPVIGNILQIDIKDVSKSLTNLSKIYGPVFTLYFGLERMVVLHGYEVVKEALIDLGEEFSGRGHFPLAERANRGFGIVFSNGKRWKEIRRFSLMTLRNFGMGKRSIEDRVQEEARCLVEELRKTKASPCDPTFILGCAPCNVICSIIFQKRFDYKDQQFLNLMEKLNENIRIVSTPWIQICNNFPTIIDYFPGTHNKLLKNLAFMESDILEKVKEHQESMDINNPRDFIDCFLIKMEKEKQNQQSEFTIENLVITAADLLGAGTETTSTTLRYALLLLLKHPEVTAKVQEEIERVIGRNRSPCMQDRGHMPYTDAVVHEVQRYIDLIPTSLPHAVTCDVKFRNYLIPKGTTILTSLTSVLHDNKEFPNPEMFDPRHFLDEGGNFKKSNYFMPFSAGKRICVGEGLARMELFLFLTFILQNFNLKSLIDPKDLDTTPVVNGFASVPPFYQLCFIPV

`CC[C@H](Nc1nc(NCc2cnc(C)cc2C)c2ncn(C(C)C)c2n1)[C@@H](C)O` [Compound [1]]: the values for the IC50 in the experiment on NCI-H929 and against CYP2C19 were 350 nM and more than 25 µM, respectively.

Source of the values: patent US8592581B2, “Trisubstituted purine derivatives” (Cyclacel Limited, priority 2007, dated 2013).
